# Test results reported in patent US12378249B2, “Isoquinoline compounds and uses thereof” (Genentech, Inc., priority 2018, dated 2025).
# Molecular target: HPK1 (Homo sapiens (Human), UniProt Q92918, S171E/T165E)
# Test: HPK1-FL HTRF Enzymatic Assay (HTRF)
# Format: biochemical
# Conditions: HPK full length T165E S171E 0.125 nM, ATP 1 mM, Biotin-SLP76 100 nM, read-out: HPK1 Ki (nM), H = HTRF
# Summary of the method: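 Ki derived from % activity calculated from the TR-FRET 665/620 ratio, using Eu-anti-pSLP76 and SA-XL665 detection added for 60 min. Reaction: compound preincubated 30 min with full-length double-mutant HPK1, then 60 min with Biotin-SLP-76 and 1 mM ATP, pH 7.5 HEPES buffer.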
# HPK1, sequence (Q92918 whole entry T165E/S171E): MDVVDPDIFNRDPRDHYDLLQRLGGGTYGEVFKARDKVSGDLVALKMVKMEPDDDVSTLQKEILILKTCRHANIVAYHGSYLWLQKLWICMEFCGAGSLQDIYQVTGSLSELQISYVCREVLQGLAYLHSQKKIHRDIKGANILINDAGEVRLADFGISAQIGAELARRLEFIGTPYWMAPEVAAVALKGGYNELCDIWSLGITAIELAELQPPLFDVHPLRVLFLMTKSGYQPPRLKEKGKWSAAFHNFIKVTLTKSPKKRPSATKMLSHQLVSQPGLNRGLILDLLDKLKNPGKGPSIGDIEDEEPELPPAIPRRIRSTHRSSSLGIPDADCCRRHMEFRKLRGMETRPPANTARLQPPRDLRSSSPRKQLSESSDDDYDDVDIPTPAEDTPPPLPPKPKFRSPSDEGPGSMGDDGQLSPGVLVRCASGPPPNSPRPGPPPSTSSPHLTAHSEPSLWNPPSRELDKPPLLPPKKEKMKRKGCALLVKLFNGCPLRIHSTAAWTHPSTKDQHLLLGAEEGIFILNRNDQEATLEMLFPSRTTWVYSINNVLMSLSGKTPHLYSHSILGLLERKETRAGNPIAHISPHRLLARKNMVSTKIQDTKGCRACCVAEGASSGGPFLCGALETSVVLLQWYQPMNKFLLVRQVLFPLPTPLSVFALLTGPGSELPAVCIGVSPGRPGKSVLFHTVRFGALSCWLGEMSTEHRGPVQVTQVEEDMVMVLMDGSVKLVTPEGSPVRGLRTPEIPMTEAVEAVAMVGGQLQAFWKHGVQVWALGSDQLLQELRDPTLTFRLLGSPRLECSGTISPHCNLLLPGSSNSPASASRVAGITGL
row,Compound,Ki [nM]
1,"CC(C)N1CCc2cc(Nc3cc4cc(C(=O)N5CCN(C)CC5)c(F)cc4cn3)nn2CC1=O [Compound 124, 2-((7-fluoro-6-(4-methylpiperazine-1-carbonyl)isoquinolin-3-yl)amino)-6-isopropyl-5,6-dihydro-4H-pyrazolo[1,5-d][1,4]diazepin-7(8H)-one]",63
2,"Cc1c(N)cncc1-c1cc2cc(Nc3cc4n(n3)Cc3nccn3CC4)ncc2cc1F [Compound 125, N-(6-(5-amino-4-methylpyridin-3-yl)-7-fluoroisoquinolin-3-yl)-5,6-dihydro-11H-imidazo[1,2-a]pyrazolo[1,5-d][1,4]diazepin-8-amine]",0.03
3,"Cc1ncc(-c2cc3cc(Nc4cc5n(n4)CC(=O)N(C(C)C)CC5)ncc3cc2F)c(C)c1N [Compound 126, 2-((6-(5-amino-4,6-dimethylpyridin-3-yl)-7-fluoroisoquinolin-3-yl)amino)-6-isopropyl-5,6-dihydro-4H-pyrazolo[1,5-d][1,4]diazepin-7(8H)-one]",0.148
4,"Cc1c(N)cncc1-c1cc2cc(Nc3cc4n(n3)CC(=O)N(C)CC4(F)F)ncc2cc1F [Compound 127, 2-[[6-(5-amino-4-methyl-3-pyridyl)-7-fluoro-3-isoquinolyl]amino]-4,4-difluoro-6-methyl-5,8-dihydropyrazolo[1,5-d][1,4]diazepin-7-one]",0.04
5,"Cc1c(N)cncc1-c1ccc2cnc(Nc3cc4n(n3)CC(=O)N(C(C)C)CC4)cc2c1 [Compound 129, 2-[[6-(5-amino-4-methyl-3-pyridyl)-3-isoquinolyl]amino]-6-isopropyl-5,8-dihydro-4H-pyrazolo[1,5-d][1,4]diazepin-7-one]",0.04
6,"Cc1ccncc1-c1cc2cc(Nc3cc4n(n3)CC(=O)N(C(C)C)CC4)ncc2cc1F [Compound 131, 2-[[7-fluoro-6-(4-methyl-3-pyridyl)-3-isoquinolyl]amino]-6-isopropyl-5,8-dihydro-4H-pyrazolo[1,5-d][1,4]diazepin-7-one]",2.5
7,"Cc1ncc(-c2cc3cc(Nc4cc5n(n4)CC(=O)N(C(C)C)CC5)ncc3c(O)c2F)c(C)c1N [Compound 133, 2-((6-(5-amino-4,6-dimethylpyridin-3-yl)-7-fluoro-8-hydroxyisoquinolin-3-yl)amino)-6-isopropyl-5,6-dihydro-4H-pyrazolo[1,5-d][1,4]diazepin-7(8H)-one]",3.7
8,"Cc1ccncc1-c1cc2cc(Nc3cc4n(n3)CC3=NOC(C)(C)N3CC4)ncc2cc1F [Compound 134, N-(7-fluoro-6-(4-methylpyridin-3-yl)isoquinolin-3-yl)-3,3-dimethyl-5,6-dihydro-3H,11H-[1,2,4]oxadiazolo[4,3-a]pyrazolo[1,5-d][1,4]diazepin-8-amine]",3.4
9,"Cc1c(-c2cc3cc(Nc4cc5n(n4)CC(=O)N(C(C)C)CC5)ncc3c(F)c2F)cnc2c1NCCO2 [Compound 135, 2-((7,8-difluoro-6-(8-methyl-2,3-dihydro-1H-pyrido[2,3-b][1,4]oxazin-7-yl)isoquinolin-3-yl)amino)-6-isopropyl-5,6-dihydro-4H-pyrazolo[1,5-d][1,4]diazepin-7(8H)-one]",0.038
10,"COc1cc(C)c(-c2cc3cc(Nc4cc5n(n4)CC(=O)N(C)CC5)ncc3cc2F)cn1 [Compound 137, 2-((7-fluoro-6-(6-methoxy-4-methylpyridin-3-yl)isoquinolin-3-yl)amino)-6-methyl-5,6-dihydro-4H-pyrazolo[1,5-d][1,4]diazepin-7(8H)-one]",2.2
11,"Cc1c(-c2cc3cc(Nc4cc5n(n4)CC(=O)N(C(C)C)CC5)ncc3cc2F)cnc2oc(=O)[nH]c12 [Compound 142, 6-(7-fluoro-3-((6-isopropyl-7-oxo-5,6,7,8-tetrahydro-4H-pyrazolo[1,5-d][1,4]diazepin-2-yl)amino)isoquinolin-6-yl)-7-methyloxazolo[5,4-b]pyridin-2(1H)-one]",1.9
12,"Cc1c(N)cncc1-c1cc2cc(Nc3cc4n(n3)CC(=O)NCC4)ncc2cc1F [Compound 144, 2-((6-(5-amino-4-methylpyridin-3-yl)-7-fluoroisoquinolin-3-yl)amino)-5,6-dihydro-4H-pyrazolo[1,5-d][1,4]diazepin-7(8H)-one]",0.062
13,"Cc1c(-c2ccc3cnc(Nc4cc5n(n4)CC(=O)N(CCO)CC5)cc3c2F)cnc2c1NCCO2 [Compound 146, 2-((5-fluoro-6-(8-methyl-2,3-dihydro-1H-pyrido[2,3-b][1,4]oxazin-7-yl)isoquinolin-3-yl)amino)-6-(2-hydroxyethyl)-5,6-dihydro-4H-pyrazolo[1,5-d][1,4]diazepin-7(8H)-one]",0.034

# The next compounds have a lower Ki than those just listed; values first:
row,Ki [nM],Compound
1,0.02,"Cc1c(-c2cc3cc(Nc4cc5n(n4)CC(=O)N(CCN4CCOCC4)CC5)ncc3cc2F)cnc2c1NCCO2 [Compound 132, 2-[[7-fluoro-6-(8-methyl-2,3-dihydro-1H-pyrido[2,3-b][1,4]oxazin-7-yl)-3-isoquinolyl]amino]-6-(2-morpholinoethyl)-5,8-dihydro-4H-pyrazolo[1,5-d][1,4]diazepin-7-one]"
2,0.028,"Cc1c(N)cncc1-c1cc2cc(Nc3cc4n(n3)CC(=O)N(CCN3CCOCC3)CC4)ncc2cc1F [Compound 136, 2-((6-(5-amino-4-methylpyridin-3-yl)-7-fluoroisoquinolin-3-yl)amino)-6-(2-morpholinoethyl)-5,6-dihydro-4H-pyrazolo[1,5-d][1,4]diazepin-7(8H)-one]"
3,0.013,"Cc1c(-c2cc3cc(Nc4cc5n(n4)CC(=O)N(C)CC5)ncc3c(F)c2F)cnc2c1NCCO2 [Compound 138, 2-((7,8-difluoro-6-(8-methyl-2,3-dihydro-1H-pyrido[2,3-b][1,4]oxazin-7-yl)isoquinolin-3-yl)amino)-6-methyl-5,6-dihydro-4H-pyrazolo[1,5-d][1,4]diazepin-7(8H)-one]"
4,0.013,"Cc1c(-c2cc3cc(Nc4cc5n(n4)Cc4nccn4CC5)ncc3cc2F)cnc2c1NCCO2 [Compound 143, N-(7-fluoro-6-(8-methyl-2,3-dihydro-1H-pyrido[2,3-b][1,4]oxazin-7-yl)isoquinolin-3-yl)-5,6-dihydro-11H-imidazo[1,2-a]pyrazolo[1,5-d][1,4]diazepin-8-amine]"
5,0.013,"Cc1c(-c2cc3cc(Nc4cc5n(n4)CC(=O)N(CCO)CC5)ncc3cc2F)cnc2c1NCCO2 [Compound 145, 2-((7-fluoro-6-(8-methyl-2,3-dihydro-1H-pyrido[2,3-b][1,4]oxazin-7-yl)isoquinolin-3-yl)amino)-6-(2-hydroxyethyl)-5,6-dihydro-4H-pyrazolo[1,5-d][1,4]diazepin-7(8H)-one]"
6,0.013,"Cc1c(-c2cc3cc(Nc4cc5n(n4)Cc4nncn4CC5)ncc3cc2F)cnc2c1NCCO2 [Compound 151, N-(7-fluoro-6-(8-methyl-2,3-dihydro-1H-pyrido[2,3-b][1,4]oxazin-7-yl)isoquinolin-3-yl)-5,6-dihydro-11H-pyrazolo[1,5-d][1,2,4]triazolo[4,3-a][1,4]diazepin-8-amine]"
7,0.028,"Cc1c(N)cncc1-c1ccc2cnc(Nc3cc4n(n3)CC(=O)N(C(C)C)CC4)cc2c1Cl [Compound 152, 2-((6-(5-amino-4-methylpyridin-3-yl)-5-chloroisoquinolin-3-yl)amino)-6-isopropyl-5,6-dihydro-4H-pyrazolo[1,5-d][1,4]diazepin-7(8H)-one]"
8,0.013,"COCCN1CCc2cc(Nc3cc4cc(-c5cnc6c(c5C)NCCO6)c(F)cc4cn3)nn2CC1=O [Compound 155, 2-((7-fluoro-6-(8-methyl-2,3-dihydro-1H-pyrido[2,3-b][1,4]oxazin-7-yl)isoquinolin-3-yl)amino)-6-(2-methoxyethyl)-5,6-dihydro-4H-pyrazolo[1,5-d][1,4]diazepin-7(8H)-one]"
9,0.017,"COCCN1CCc2cc(Nc3cc4cc(-c5cncc(N)c5C)c(F)cc4cn3)nn2CC1=O [Compound 156, 2-((6-(5-amino-4-methylpyridin-3-yl)-7-fluoroisoquinolin-3-yl)amino)-6-(2-methoxyethyl)-5,6-dihydro-4H-pyrazolo[1,5-d][1,4]diazepin-7(8H)-one]"
10,0.014,"Cc1c(N)cncc1-c1cc2cc(Nc3cc4n(n3)Cc3nccn3CC4)ncc2c(F)c1F [Compound 157, N-(6-(5-amino-4-methylpyridin-3-yl)-7,8-difluoroisoquinolin-3-yl)-5,6-dihydro-11H-imidazo[1,2-a]pyrazolo[1,5-d][1,4]diazepin-8-amine]"
11,0.023,"Cc1c(N)cncc1-c1cc2cc(Nc3cc4n(n3)CC(=O)N(CC(C)(C)O)CC4)ncc2cc1F [Compound 158, 2-((6-(5-amino-4-methylpyridin-3-yl)-7-fluoroisoquinolin-3-yl)amino)-6-(2-hydroxy-2-methylpropyl)-5,6-dihydro-4H-pyrazolo[1,5-d][1,4]diazepin-7(8H)-one]"
12,0.015,"Cc1c(N)cncc1-c1cc2cc(Nc3cc4n(n3)CC(=O)N(CCO)CC4)ncc2cc1F [Compound 159, 2-((6-(5-amino-4-methylpyridin-3-yl)-7-fluoroisoquinolin-3-yl)amino)-6-(2-hydroxyethyl)-5,6-dihydro-4H-pyrazolo[1,5-d][1,4]diazepin-7(8H)-one]"
13,0.013,"Cc1c(-c2cc3cc(Nc4cc5n(n4)CC(=O)NCC5)ncc3cc2F)cnc2c1NCCO2 [Compound 160, 2-((7-fluoro-6-(8-methyl-2,3-dihydro-1H-pyrido[2,3-b][1,4]oxazin-7-yl)isoquinolin-3-yl)amino)-5,6-dihydro-4H-pyrazolo[1,5-d][1,4]diazepin-7(8H)-one]"
14,0.014,"Cc1c(-c2cc3cc(Nc4cc5n(n4)Cc4nccn4CC5)ncc3c(F)c2F)cnc2c1NCCO2 [Compound 161, N-(7,8-difluoro-6-(8-methyl-2,3-dihydro-1H-pyrido[2,3-b][1,4]oxazin-7-yl)isoquinolin-3-yl)-5,6-dihydro-11H-imidazo[1,2-a]pyrazolo[1,5-d][1,4]diazepin-8-amine]"
